# Source: patent publication US20160168541A1, “TRANSDUCIBLE MATERIALS FOR CELL REPROGRAMMING” (VIVOSCRIPT, INC., priority 2013, published 2016)
# “Also recorded” adds a separate entry of the source.
# Tests used:
# Type in all cases: cell-based
# adult human fibroblasts [1] = test: Live fluorescent imaging of uptake and nuclear occupancy of sGFP polypeptides in fibroblasts; settings: 10 μg/ml
# Protocol: FIG. 5. Live fluorescent imaging of human fibroblasts after culturing in 10 μg/ml of first generation sGFP-MyoD-11R.
# In the first generation of transducible materials, a sGFP transduction domain and a poly-arginine (11R) were fused to the N-terminus and C-terminus of MyoD through a linker (SEQ ID NO: 99) respectively to generate sGFP-MyoD-11R (SEQ ID NO: 156). […] The nuclear entry of sGFP-MyoD-11R was increased by using 100 μg/ml sGFP-MyoD-11R and electroporation, which successful reprogrammed very low percentage (around 10%) of FBs to MyoD+ myoblasts.
# The second generation of transducible materials, a strong classic nuclear localization sequence (cNLS), the SV40 T antigen NLS, was added in-between sGFP and MyoD-11R (SEQ ID NO: 157 and FIG. 3).
# Leptomycin B (leptoB), a nuclear export blocker, was added at 5 nM to adult fibroblasts to enhance nuclear occupancy of sGFP-NLS-MyoD-11R. […] Higher concentrations of leptoB might have off-target effects, which limits its use in enhancing nuclear retention of specific polypeptides.
# In the third generation of transducible materials, the NES of MyoD was mutated to generate sGFP-NLS-MyoD(mNES)-11R (SEQ ID NO: 127 and FIG. 3) to further improve their nuclear occupancy and transcription efficiency. […] These SCs were positive for Myf5 (>90% of SCs) at 22 days after transduction (FIG. 8B). Also, these SCs could be induced to differentiate to myoblasts with downregulation of Pax7 and upregulation of MyoD via a published myogenic protocol (Cosgrove et al, Rejuvenation of the muscle stem cell population restores strength to injured aged muscles, Nat Med., 20:255-64 (2014)). […] Thus, by using sGFP-NLS-MyoD(mNES)-11R, efficient fibroblasts conversion to SMPCs can be achieved in a controlled fashion. The risk of extensive durations of MyoD activation is completely avoided. Most myogenic analysis was performed at >2 weeks after polypeptide transduction to avoid confounding issues from added exogenous polypeptides. In summary, adult fibroblast can be successfully reprogrammed to SCs using sGFP-NLS-MyoD(mNES)-11R with defined kinetics (2-day nuclear occupancy and 2-3 week peptide lifespan).
# adult human fibroblasts [2] = test: Reprogramming of fibroblasts to skeletal muscle progenitor cells (satellite cells, myoblasts)
# Protocol: FIG. 4. Schematic of experimental protocol to convert fibroblasts to myoblasts with transducible materials derived from MyoD.
# In this example, three versions of transducible materials derived from MyoD (the master myogenic transcription factor) were generated and their effects on reprogramming fibroblast cells into skeletal muscle progenitor cells (SMPCs) were compared.
# Most myogenic analysis was performed at >2 weeks after polypeptide transduction to avoid confounding issues from added exogenous polypeptides.
# [3] = system: Oct4 target genes (Oct4, Sox2, Nanog, Smad3 and Smad4); test: RT-qPCR of Oct4 target genes in HepG2 cells treated with transducible materials; settings: serum-free medium, 6 hours, normalized by GAPDH, sGFP-treated sample set as 1.00
# Protocol: FIG. 2. Comparison of sGFP-Oct4(mNES) and sGFP-Oct4 protein in regulating the expression of downstream genes. HepG2 cells were treated with sGFP, sGFP-Oct4 or sGFP-Oct4(mNES) in serum-free medium for 6 hours. RNA was isolated and RT-qPCR was performed. The expression of each gene was normalized by the expression level of GAPDH. The relative expression level of each gene in the control condition (sGFP-treated sample) was set as 1.00.
# HepG2 cells were treated with transducible materials comprising isolated polypeptide of sGFP, sGFP-Oct4-11R or sGFP-Oct4(mNES)-11R in serum-free medium for 6 hours. RNA was extracted from each sample using RNeasy Micro Kit from Qiagen and cDNA was synthesized through reverse transcription reaction. RT-qPCRs of five Oct4 target genes (Oct4, Sox2, Nanog, Smad3 and Smad4 were performed using a pair of primers specific to each target gene and a hydrolysis probe from Roche Universal ProbeLibrary on LightCycler 480 II. The expression of each gene was normalized by the expression level of GAPDH. The relative expression level of each gene in the control condition (sGFP-treated sample) was set as 1.00.
Substance,time the polypeptide stays in the nucleus (adult human fibroblasts [1]; leptomycin B 5 nM),"nuclear occupancy (GFP signal in nuclei) with leptomycin B (adult human fibroblasts [1]; leptomycin B 5 nM, third generation at 30 min, 24 hours and 48 hours)",nuclear occupancy (localization of GFP signal) (adult human fibroblasts [1]; no leptomycin B),"change of nuclear occupancy with time (adult human fibroblasts [1]; no leptomycin B, 24 hours)","reprogramming of fibroblasts to SMPCs (adult human fibroblasts [2]; 10 μg/ml, no leptomycin B)",reprogramming efficiency of adult fibroblasts to SMPCs (adult human fibroblasts [2]; continuous presence of leptomycin B 5 nM),expression of Oct4 target genes [3]
"sGFP-NLS-MyoD-11R: Second generation: SV40 T antigen NLS added between sGFP and MyoD-11R, SEQ ID NO: 157",> 24 h,slightly improves the nuclear occupancy,more transducible materials were observed in nuclei; also recorded: GFP signal were observed in the nuclei,significantly decreased within 24 hours; also recorded: GFP signal in the nuclei decreased after 24 hours,low and inconsistent,around 5%,
"sGFP-Oct4-11R: Fusion polypeptide of supercharged GFP, Oct4 and 11R, SEQ ID NO: 155, unmutated NES",,,,,,,does not increase
